≈ marks a conversion by molar mass, not a printed value. Starred links: 1 amine or outer side, 2 acyl side, 3 side chain; linkers in the order of their positions; H or OH if unused. Positions of bridges follow the written chain, without caps; N, C: chain ends. Residues, ends and D or L forms follow the SMILES beside them. 2,2'Bipyridine(5,5'-diCH2) = c1cc(-c2ccc(C[*:2])cn2)ncc1C[*:1]; Naphthalene(2,6-diCH2) = c1cc2cc(C[*:2])ccc2cc1C[*:1]
Tests used:
[1] = test system: Acinetobacter baumannii (A. baumannii); format: cell-based; conditions: microbroth dilution, 20-24 hours at 37° C.
Description: (§1) Antimicrobial Activity Assay: The following microbroth dilution protocol was adapted from CLSI to determine the minimum inhibitory concentration (MIC) of StAMPs. Briefly, Mueller-Hinton broth (MHB) or cation-adjusted Mueller-Hinton broth (MHB II) was prepared and autoclaved. Then, a colony of bacterial cells was picked and grown overnight in broth at 37° C. and then diluted and allowed to grow again for 3-4 hours. Serial dilutions of peptide stocks in water (10 μl) were prepared using clear round-bottom polypropylene 96-well plates. Then 90 μl of bacteria in broth was added to give a final inoculum of 5×10^5 CFU/ml. The plates were then covered with porous tape to reduce evaporation and incubated for 20-24 hours at 37° C. The MIC was the minimum peptide concentration at which no visible bacterial growth was observed.

[2] = test system: Escherichia coli (E. coli); format: cell-based; conditions: microbroth dilution, 20-24 hours at 37° C.
Description: as §1

[3] = test system: Klebsiella pneumoniae (K. pneumoniae); format: cell-based; conditions: microbroth dilution, 20-24 hours at 37° C.
Description: as §1

[4] = test system: Pseudomonas aeruginosa (P. aeruginosa); format: cell-based; conditions: microbroth dilution, 20-24 hours at 37° C.
Description: as §1

[5] = test system: Staphylococcus aureus (S. aureus); format: cell-based; conditions: microbroth dilution, 20-24 hours at 37° C.
Description: as §1

[6] = 48 hours cytotoxicity assay (CellTiter-Glo), liver toxicity; format: cell-based, human; conditions: 48 hours of incubation, CellTiter-Glo; read-out: Inhibitory Concentration at 50% Cytotoxicity (IC50) Human Liver Cells (HepG2)
Outline: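 HepG2 cells in EMEM with 10% FBS, allowed to attach 4 h, then exposed to serially diluted StAMPs or vehicle for 48 h at 37 °C. Viability read by CellTiter-Glo luminescence.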

CC[C@H](C)[C@H](NC(=O)CN)C(=O)N[C@@H](Cc1ccccc1)C(=O)N[C@@H](CO)C(=O)N[C@@H](CCCCN)C(=O)N[C@H]1CSCc2ccc3cc(ccc3c2)CSC[C@@H](C(=O)N[C@@H](CC(C)C)C(=O)N[C@@H](CC(C)C)C(=O)N[C@H](C(=O)N[C@@H](CO)C(=O)NCC(=O)N[C@@H](CC(C)C)C(=O)N[C@@H](CCCCN)C(=O)NCC(N)=O)[C@@H](C)CC)NC(=O)[C@H](CCCCN)NC(=O)[C@H]([C@@H](C)CC)NC(=O)[C@H](CCCCN)NC(=O)[C@H](CCCCN)NC(=O)CNC(=O)[C@H](C)NC1=O [compound 64] (H-GIFSKCAGKKIKCLLISGLKG-NH2; linker 6-13 via Naphthalene(2,6-diCH2))
Minimum Inhibitory Concentration (MIC) A. baumannii [1]: 8 µg/mL
Minimum Inhibitory Concentration (MIC) E. coli [2]: 8 µg/mL
Minimum Inhibitory Concentration (MIC) K. pneumoniae [3]: 16 µg/mL
Minimum Inhibitory Concentration (MIC) P. aeruginosa [4]: >64 µg/mL
Minimum Inhibitory Concentration (MIC) S. aureus [5]: >64 µg/mL
IC50 [6]: 53 µg/mL (≈ 22.9 µM)

CC[C@H](C)[C@H](NC(=O)CN)C(=O)N[C@@H](Cc1ccccc1)C(=O)N[C@@H](CO)C(=O)N[C@@H](CCCCN)C(=O)N[C@@H](CC(C)C)C(=O)N[C@@H](C)C(=O)N[C@H]1CSCc2ccc(nc2)-c2ccc(cn2)CSC[C@@H](C(=O)N[C@H](C(=O)N[C@@H](CO)C(=O)NCC(=O)N[C@@H](CC(C)C)C(=O)N[C@@H](CCCCN)C(=O)NCC(N)=O)[C@@H](C)CC)NC(=O)[C@H](CC(C)C)NC(=O)[C@H](CC(N)=O)NC(=O)[C@H](CCCCN)NC(=O)[C@H]([C@@H](C)CC)NC(=O)[C@H](CCCCN)NC(=O)[C@H](CCCCN)NC1=O [compound 66] (H-GIFSKLACKKIKNLCISGLKG-NH2; linker 8-15 via 2,2'Bipyridine(5,5'-diCH2))
Minimum Inhibitory Concentration (MIC) A. baumannii [1]: 4 µg/mL
Minimum Inhibitory Concentration (MIC) E. coli [2]: 8 µg/mL
Minimum Inhibitory Concentration (MIC) K. pneumoniae [3]: 16 µg/mL
Minimum Inhibitory Concentration (MIC) P. aeruginosa [4]: 32 µg/mL
Minimum Inhibitory Concentration (MIC) S. aureus [5]: >64 µg/mL
IC50 [6]: 75 µg/mL (≈ 31.2 µM)

CC[C@H](C)[C@H](NC(=O)CN)C(=O)N[C@@H](Cc1ccccc1)C(=O)N[C@@H](CO)C(=O)N[C@@H](CCCCN)C(=O)N[C@@H](CC(C)C)C(=O)N[C@@H](C)C(=O)N[C@H]1CSCc2ccc3cc(ccc3c2)CSC[C@@H](C(=O)N[C@H](C(=O)N[C@@H](CO)C(=O)NCC(=O)N[C@@H](CC(C)C)C(=O)N[C@@H](CCCCN)C(=O)NCC(N)=O)[C@@H](C)CC)NC(=O)[C@H](CC(C)C)NC(=O)[C@H](CC(N)=O)NC(=O)[C@H](CCCCN)NC(=O)[C@H]([C@@H](C)CC)NC(=O)[C@H](CCCCN)NC(=O)[C@H](CCCCN)NC1=O [compound 67] (H-GIFSKLACKKIKNLCISGLKG-NH2; linker 8-15 via Naphthalene(2,6-diCH2))
Minimum Inhibitory Concentration (MIC) A. baumannii [1]: 4 µg/mL
Minimum Inhibitory Concentration (MIC) E. coli [2]: 4 µg/mL
Minimum Inhibitory Concentration (MIC) K. pneumoniae [3]: 8 µg/mL
Minimum Inhibitory Concentration (MIC) P. aeruginosa [4]: 32 µg/mL
Minimum Inhibitory Concentration (MIC) S. aureus [5]: >64 µg/mL
IC50 [6]: 59 µg/mL (≈ 24.9 µM)

CC[C@H](C)[C@H](NC(=O)CN)C(=O)N[C@@H](Cc1ccccc1)C(=O)N[C@@H](CO)C(=O)N[C@@H](CCCCN)C(=O)N[C@@H](CC(C)C)C(=O)N[C@@H](C)C(=O)NCC(=O)N[C@H]1CSCc2ccc3cc(ccc3c2)CSC[C@@H](C(=O)N[C@@H](CO)C(=O)NCC(=O)N[C@@H](CC(C)C)C(=O)N[C@@H](CCCCN)C(=O)NCC(N)=O)NC(=O)[C@H](CC(C)C)NC(=O)[C@H](CC(C)C)NC(=O)[C@H](CC(N)=O)NC(=O)[C@H](CCCCN)NC(=O)[C@H]([C@@H](C)CC)NC(=O)[C@H](CCCCN)NC1=O [compound 69] (H-GIFSKLAGCKIKNLLCSGLKG-NH2; linker 9-16 via Naphthalene(2,6-diCH2); N-terminus assumed)
Minimum Inhibitory Concentration (MIC) A. baumannii [1]: 16 µg/mL
Minimum Inhibitory Concentration (MIC) E. coli [2]: 16 µg/mL
Minimum Inhibitory Concentration (MIC) K. pneumoniae [3]: 32 µg/mL
Minimum Inhibitory Concentration (MIC) P. aeruginosa [4]: >64 µg/mL
Minimum Inhibitory Concentration (MIC) S. aureus [5]: >64 µg/mL
IC50 [6]: 52 µg/mL (≈ 22.6 µM)

CC[C@H](C)[C@H](NC(=O)CN)C(=O)N[C@@H](Cc1ccccc1)C(=O)N[C@@H](CO)C(=O)N[C@@H](CCCCN)C(=O)N[C@@H](CC(C)C)C(=O)N[C@@H](C)C(=O)NCC(=O)N[C@H]1CSCc2ccc(nc2)-c2ccc(cn2)CSC[C@@H](C(=O)N[C@@H](CO)C(=O)NCC(=O)N[C@@H](CC(C)C)C(=O)N[C@@H](CCCCN)C(=O)NCC(N)=O)NC(=O)[C@H](CC(C)C)NC(=O)[C@H](CC(C)C)NC(=O)[C@H](CC(N)=O)NC(=O)[C@H](CCCCN)NC(=O)[C@H]([C@@H](C)CC)NC(=O)[C@H](CCCCN)NC1=O [compound 71] (H-GIFSKLAGCKIKNLLCSGLKG-NH2; linker 9-16 via 2,2'Bipyridine(5,5'-diCH2); N-terminus assumed)
Minimum Inhibitory Concentration (MIC) A. baumannii [1]: 32 µg/mL
Minimum Inhibitory Concentration (MIC) E. coli [2]: 64 µg/mL
Minimum Inhibitory Concentration (MIC) K. pneumoniae [3]: >64 µg/mL
Minimum Inhibitory Concentration (MIC) P. aeruginosa [4]: >64 µg/mL
Minimum Inhibitory Concentration (MIC) S. aureus [5]: >64 µg/mL
IC50 [6]: 360 µg/mL (≈ 155 µM)

CC[C@H](C)[C@H](NC(=O)CN)C(=O)N[C@@H](Cc1ccccc1)C(=O)N[C@@H](CO)C(=O)N[C@@H](CCCCN)C(=O)N[C@@H](CC(C)C)C(=O)N[C@@H](C)C(=O)NCC(=O)N[C@@H](CCCCN)C(=O)N[C@@H](CCCCN)C(=O)N[C@H]1CSCc2ccc3cc(ccc3c2)CSC[C@@H](C(=O)N[C@@H](CC(C)C)C(=O)N[C@@H](CCCCN)C(=O)NCC(N)=O)NC(=O)[C@H](CO)NC(=O)[C@H]([C@@H](C)CC)NC(=O)[C@H](CC(C)C)NC(=O)[C@H](CC(C)C)NC(=O)[C@H](CC(N)=O)NC(=O)[C@H](CCCCN)NC1=O [compound 75] (H-GIFSKLAGKKCKNLLISCLKG-NH2; linker 11-18 via Naphthalene(2,6-diCH2); N-terminus assumed)
Minimum Inhibitory Concentration (MIC) A. baumannii [1]: 4 µg/mL
Minimum Inhibitory Concentration (MIC) E. coli [2]: 4 µg/mL
Minimum Inhibitory Concentration (MIC) K. pneumoniae [3]: 16 µg/mL
Minimum Inhibitory Concentration (MIC) P. aeruginosa [4]: 16 µg/mL
Minimum Inhibitory Concentration (MIC) S. aureus [5]: 64 µg/mL
IC50 [6]: 98 µg/mL (≈ 41.3 µM)

CC[C@H](C)[C@H](NC(=O)CN)C(=O)N[C@@H](Cc1ccccc1)C(=O)N[C@@H](CO)C(=O)N[C@@H](CCCCN)C(=O)N[C@@H](CC(C)C)C(=O)N[C@@H](C)C(=O)NCC(=O)N[C@@H](CCCCN)C(=O)N[C@@H](CCCCN)C(=O)N[C@H]1CSCc2ccc(nc2)-c2ccc(cn2)CSC[C@@H](C(=O)N[C@@H](CC(C)C)C(=O)N[C@@H](CCCCN)C(=O)NCC(N)=O)NC(=O)[C@H](CO)NC(=O)[C@H]([C@@H](C)CC)NC(=O)[C@H](CC(C)C)NC(=O)[C@H](CC(C)C)NC(=O)[C@H](CC(N)=O)NC(=O)[C@H](CCCCN)NC1=O [compound 77] (H-GIFSKLAGKKCKNLLISCLKG-NH2; linker 11-18 via 2,2'Bipyridine(5,5'-diCH2); N-terminus assumed)
Minimum Inhibitory Concentration (MIC) A. baumannii [1]: 4 µg/mL
Minimum Inhibitory Concentration (MIC) E. coli [2]: 4 µg/mL
Minimum Inhibitory Concentration (MIC) K. pneumoniae [3]: 32 µg/mL
Minimum Inhibitory Concentration (MIC) P. aeruginosa [4]: 32 µg/mL
Minimum Inhibitory Concentration (MIC) S. aureus [5]: >64 µg/mL
IC50 [6]: 159 µg/mL (≈ 66.2 µM)

CC[C@H](C)[C@H](NC(=O)CN)C(=O)N[C@@H](Cc1ccccc1)C(=O)N[C@@H](CO)C(=O)N[C@@H](CCCCN)C(=O)N[C@@H](CC(C)C)C(=O)N[C@@H](C)C(=O)NCC(=O)N[C@@H](CCCCN)C(=O)N[C@@H](CCCCN)C(=O)N[C@H](C(=O)N[C@H]1CSCc2ccc3cc(ccc3c2)CSC[C@@H](C(=O)N[C@@H](CCCCN)C(=O)NCC(N)=O)NC(=O)CNC(=O)[C@H](CO)NC(=O)[C@H]([C@@H](C)CC)NC(=O)[C@H](CC(C)C)NC(=O)[C@H](CC(C)C)NC(=O)[C@H](CC(N)=O)NC1=O)[C@@H](C)CC [compound 78] (H-GIFSKLAGKKICNLLISGCKG-NH2; linker 12-19 via Naphthalene(2,6-diCH2); N-terminus assumed)
Minimum Inhibitory Concentration (MIC) A. baumannii [1]: 16 µg/mL
Minimum Inhibitory Concentration (MIC) E. coli [2]: 16 µg/mL
Minimum Inhibitory Concentration (MIC) K. pneumoniae [3]: 64 µg/mL
Minimum Inhibitory Concentration (MIC) P. aeruginosa [4]: 64 µg/mL
Minimum Inhibitory Concentration (MIC) S. aureus [5]: >64 µg/mL
IC50 [6]: 108 µg/mL (≈ 46.9 µM)

CC[C@H](C)[C@H](NC(=O)CN)C(=O)N[C@@H](Cc1ccccc1)C(=O)N[C@@H](CO)C(=O)N[C@@H](CCCCN)C(=O)N[C@@H](CC(C)C)C(=O)N[C@@H](C)C(=O)NCC(=O)N[C@@H](CCCCN)C(=O)N[C@@H](CCCCN)C(=O)N[C@H](C(=O)N[C@H]1CSCc2ccc(nc2)-c2ccc(cn2)CSC[C@@H](C(=O)N[C@@H](CCCCN)C(=O)NCC(N)=O)NC(=O)CNC(=O)[C@H](CO)NC(=O)[C@H]([C@@H](C)CC)NC(=O)[C@H](CC(C)C)NC(=O)[C@H](CC(C)C)NC(=O)[C@H](CC(N)=O)NC1=O)[C@@H](C)CC [compound 80] (H-GIFSKLAGKKICNLLISGCKG-NH2; linker 12-19 via 2,2'Bipyridine(5,5'-diCH2); N-terminus assumed)
Minimum Inhibitory Concentration (MIC) A. baumannii [1]: 32 µg/mL
Minimum Inhibitory Concentration (MIC) E. coli [2]: 32 µg/mL
Minimum Inhibitory Concentration (MIC) K. pneumoniae [3]: >64 µg/mL
Minimum Inhibitory Concentration (MIC) P. aeruginosa [4]: >64 µg/mL
Minimum Inhibitory Concentration (MIC) S. aureus [5]: >64 µg/mL
IC50 [6]: 49 µg/mL (≈ 21 µM)

From patent US20240391965A1, “STAPLED ANTIMICROBIAL PEPTIDES (STAMPS) AND USES THEREOF” (Lytica Therapeutics, Inc., priority 2021, published 2024)
